The results in this text go back to ChEMBL document CHEMBL5584226, “α-Fluorination of tropane compounds and its impact on physicochemical and ADME properties” (Bioorg Med Chem Lett, 2024).

The structures appear in SMILES notation. ≈ marks a conversion by molar mass, not a printed value.

For data set [1], the target named is Voltage-gated inwardly rectifying potassium channel KCNH2 (Homo sapiens, UniProt Q12809). Briefly: Inhibition of hERG. The format is toxicity. In general terms: hERG is a cardiac potassium channel; its block is linked to QT prolongation.
Voltage-gated inwardly rectifying potassium channel KCNH2, sequence (Q12809 whole entry): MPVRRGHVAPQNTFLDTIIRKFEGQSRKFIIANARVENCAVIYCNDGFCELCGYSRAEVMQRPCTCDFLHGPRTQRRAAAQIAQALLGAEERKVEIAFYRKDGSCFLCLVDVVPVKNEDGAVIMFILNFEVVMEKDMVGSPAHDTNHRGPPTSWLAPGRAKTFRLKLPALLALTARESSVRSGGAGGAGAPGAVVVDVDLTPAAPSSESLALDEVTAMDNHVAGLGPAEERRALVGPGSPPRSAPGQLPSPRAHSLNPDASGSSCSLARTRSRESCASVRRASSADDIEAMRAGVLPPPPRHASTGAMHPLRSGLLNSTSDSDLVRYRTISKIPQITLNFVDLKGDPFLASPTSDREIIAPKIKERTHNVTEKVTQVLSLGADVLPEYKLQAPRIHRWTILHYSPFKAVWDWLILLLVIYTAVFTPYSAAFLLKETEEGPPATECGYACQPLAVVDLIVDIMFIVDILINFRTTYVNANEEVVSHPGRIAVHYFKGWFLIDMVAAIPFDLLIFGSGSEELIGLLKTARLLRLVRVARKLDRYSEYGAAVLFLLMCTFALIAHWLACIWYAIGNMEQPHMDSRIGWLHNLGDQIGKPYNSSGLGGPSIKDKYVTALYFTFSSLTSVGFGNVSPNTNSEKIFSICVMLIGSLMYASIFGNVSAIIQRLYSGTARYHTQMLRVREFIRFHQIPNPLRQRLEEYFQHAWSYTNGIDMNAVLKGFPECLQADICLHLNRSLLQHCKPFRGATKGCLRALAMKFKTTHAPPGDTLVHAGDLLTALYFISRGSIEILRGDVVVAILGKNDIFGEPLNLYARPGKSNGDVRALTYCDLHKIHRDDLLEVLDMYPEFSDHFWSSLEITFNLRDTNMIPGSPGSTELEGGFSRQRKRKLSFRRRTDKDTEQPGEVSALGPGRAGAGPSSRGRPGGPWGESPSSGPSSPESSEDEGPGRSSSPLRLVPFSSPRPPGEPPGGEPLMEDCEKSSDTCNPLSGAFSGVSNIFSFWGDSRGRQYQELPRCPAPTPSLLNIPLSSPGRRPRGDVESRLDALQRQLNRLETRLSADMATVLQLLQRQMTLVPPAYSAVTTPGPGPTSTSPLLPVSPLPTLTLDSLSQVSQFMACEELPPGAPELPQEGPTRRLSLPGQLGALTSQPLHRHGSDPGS
The target in a further data set is P-gp (ABCB1) (Homo sapiens, UniProt P08183). Description: Substrate activity at P-gp (unknown origin) assessed as efflux ratio. To be noted: not told. Format: ADME.
P-gp (ABCB1), sequence (P08183 whole entry): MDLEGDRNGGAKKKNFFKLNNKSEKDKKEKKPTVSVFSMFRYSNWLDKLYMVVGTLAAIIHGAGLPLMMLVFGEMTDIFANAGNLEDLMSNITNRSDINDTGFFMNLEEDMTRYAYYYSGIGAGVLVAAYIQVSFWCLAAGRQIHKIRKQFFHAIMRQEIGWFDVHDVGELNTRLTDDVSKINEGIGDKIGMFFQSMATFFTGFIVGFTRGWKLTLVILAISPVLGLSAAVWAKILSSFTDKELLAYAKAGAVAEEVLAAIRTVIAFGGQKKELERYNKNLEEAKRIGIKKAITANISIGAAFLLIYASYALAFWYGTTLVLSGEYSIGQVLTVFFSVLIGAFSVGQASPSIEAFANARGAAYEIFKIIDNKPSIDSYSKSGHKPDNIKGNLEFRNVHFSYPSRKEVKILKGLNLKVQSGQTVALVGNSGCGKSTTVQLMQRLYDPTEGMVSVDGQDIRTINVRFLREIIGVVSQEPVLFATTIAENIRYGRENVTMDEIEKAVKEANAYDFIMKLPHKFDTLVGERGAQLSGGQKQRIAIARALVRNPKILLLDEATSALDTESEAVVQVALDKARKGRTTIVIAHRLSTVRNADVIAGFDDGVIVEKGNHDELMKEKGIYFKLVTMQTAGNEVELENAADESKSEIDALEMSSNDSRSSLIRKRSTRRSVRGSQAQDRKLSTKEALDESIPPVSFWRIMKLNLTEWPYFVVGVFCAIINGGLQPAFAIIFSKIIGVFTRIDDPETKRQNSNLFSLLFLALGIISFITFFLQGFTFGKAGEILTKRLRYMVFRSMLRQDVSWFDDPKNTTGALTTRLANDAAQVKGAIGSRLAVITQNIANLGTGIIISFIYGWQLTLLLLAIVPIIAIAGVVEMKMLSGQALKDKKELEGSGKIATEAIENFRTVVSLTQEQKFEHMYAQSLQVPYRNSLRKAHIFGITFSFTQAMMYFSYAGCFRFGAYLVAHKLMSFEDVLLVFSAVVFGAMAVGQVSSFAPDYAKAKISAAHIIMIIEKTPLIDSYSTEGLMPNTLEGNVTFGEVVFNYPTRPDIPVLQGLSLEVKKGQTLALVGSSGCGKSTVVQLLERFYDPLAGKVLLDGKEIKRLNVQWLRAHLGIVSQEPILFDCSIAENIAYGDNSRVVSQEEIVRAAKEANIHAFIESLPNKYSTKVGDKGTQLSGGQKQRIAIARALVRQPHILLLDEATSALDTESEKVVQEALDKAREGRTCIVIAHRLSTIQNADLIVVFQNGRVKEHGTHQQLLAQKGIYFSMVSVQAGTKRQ
Data set [2] is described as follows: Aqueous solubility of the compound in PBS buffer at pH 7.4. Format: physicochemical.
Data set [3] can be described thus: Permeability of the compound by PAMPA method. The format is ADME. To be noted: read-out: permeability.
In data set [4] the target is Sodium channel protein type 5 subunit alpha (Homo sapiens, UniProt Q14524). Description: Inhibition of Nav1.5 (unknown origin).
Sodium channel protein type 5 subunit alpha, sequence (Q14524 whole entry): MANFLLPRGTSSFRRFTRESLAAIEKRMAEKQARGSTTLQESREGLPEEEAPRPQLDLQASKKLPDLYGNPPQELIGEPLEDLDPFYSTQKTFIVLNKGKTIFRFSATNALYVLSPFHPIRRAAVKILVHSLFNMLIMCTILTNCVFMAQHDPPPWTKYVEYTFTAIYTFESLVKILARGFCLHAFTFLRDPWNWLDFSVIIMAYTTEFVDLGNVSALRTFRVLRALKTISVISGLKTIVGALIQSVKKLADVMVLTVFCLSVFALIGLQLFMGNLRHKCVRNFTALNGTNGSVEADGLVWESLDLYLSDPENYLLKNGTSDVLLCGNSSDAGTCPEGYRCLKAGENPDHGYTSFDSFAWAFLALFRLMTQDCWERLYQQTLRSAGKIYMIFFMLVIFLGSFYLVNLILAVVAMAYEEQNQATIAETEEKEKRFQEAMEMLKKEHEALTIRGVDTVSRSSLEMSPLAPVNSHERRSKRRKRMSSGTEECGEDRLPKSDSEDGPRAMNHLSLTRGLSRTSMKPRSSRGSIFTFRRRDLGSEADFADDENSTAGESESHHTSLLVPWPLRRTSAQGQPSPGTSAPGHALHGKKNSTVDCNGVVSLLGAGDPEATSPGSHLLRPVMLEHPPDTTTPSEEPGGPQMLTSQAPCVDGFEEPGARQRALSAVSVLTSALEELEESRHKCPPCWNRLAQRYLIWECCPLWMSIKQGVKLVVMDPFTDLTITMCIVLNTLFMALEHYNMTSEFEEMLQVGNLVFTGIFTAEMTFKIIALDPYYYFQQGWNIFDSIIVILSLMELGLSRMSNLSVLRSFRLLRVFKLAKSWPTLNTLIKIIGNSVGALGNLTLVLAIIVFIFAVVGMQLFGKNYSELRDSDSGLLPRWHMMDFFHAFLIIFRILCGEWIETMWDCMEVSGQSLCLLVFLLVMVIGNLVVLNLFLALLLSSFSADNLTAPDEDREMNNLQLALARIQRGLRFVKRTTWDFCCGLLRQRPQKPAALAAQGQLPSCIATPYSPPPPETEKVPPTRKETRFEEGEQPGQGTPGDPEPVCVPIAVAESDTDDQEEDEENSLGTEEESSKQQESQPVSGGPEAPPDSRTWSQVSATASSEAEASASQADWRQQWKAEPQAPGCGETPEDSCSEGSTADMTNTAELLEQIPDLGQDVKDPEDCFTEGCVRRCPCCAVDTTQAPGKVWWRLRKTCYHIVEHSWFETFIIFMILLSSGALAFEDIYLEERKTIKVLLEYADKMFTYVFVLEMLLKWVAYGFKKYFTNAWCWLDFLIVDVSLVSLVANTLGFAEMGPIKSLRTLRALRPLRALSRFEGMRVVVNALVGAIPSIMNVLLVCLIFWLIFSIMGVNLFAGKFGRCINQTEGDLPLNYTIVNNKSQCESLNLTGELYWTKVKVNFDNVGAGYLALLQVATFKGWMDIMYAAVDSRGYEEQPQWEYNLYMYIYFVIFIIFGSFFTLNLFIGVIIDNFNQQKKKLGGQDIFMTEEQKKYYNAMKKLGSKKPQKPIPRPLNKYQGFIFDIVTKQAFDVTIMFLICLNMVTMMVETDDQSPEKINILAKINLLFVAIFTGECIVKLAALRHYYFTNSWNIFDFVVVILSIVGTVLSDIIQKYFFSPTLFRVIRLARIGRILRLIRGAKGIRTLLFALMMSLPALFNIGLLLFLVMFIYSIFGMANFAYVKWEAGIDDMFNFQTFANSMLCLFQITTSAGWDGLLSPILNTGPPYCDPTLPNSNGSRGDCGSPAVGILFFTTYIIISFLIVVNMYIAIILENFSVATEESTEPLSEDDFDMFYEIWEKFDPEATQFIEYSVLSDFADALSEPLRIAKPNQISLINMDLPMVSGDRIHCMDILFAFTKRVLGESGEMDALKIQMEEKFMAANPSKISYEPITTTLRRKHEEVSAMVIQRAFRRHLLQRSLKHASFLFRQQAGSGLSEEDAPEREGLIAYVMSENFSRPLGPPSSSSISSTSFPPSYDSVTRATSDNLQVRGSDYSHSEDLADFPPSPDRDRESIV
Data set [5] can be described thus: Microsomal stability in human liver microsomes assessed as parent compound remaining measured after 15 mins. Format: ADME, Microsome. To be noted: read-out: Stability.
A short description of data set [6]: Aqueous solubility of the compound in JP1 at pH 1.2. The format is physicochemical. To be noted: JP1, pH 1.2.
Data set [7] is described as follows: Dissociation constant, pKa of the compound. Format: physicochemical.

For `O=c1n(CC(F)CN2C3CCC2CC(OCc2ccccc2F)C3)nc2n1CCC2` (stereo not drawn), the IC50 in data set [1] worked out at 22.2 µM; in data set [4] it was 13.4 µM. Besides, the efflux ratio on P-gp (ABCB1) was determined as 2.52. Further, the results for the solubility in data set [2] and in data set [6] were 82 µM (≈ 34.3 µg/mL) and 79 µM (≈ 33.1 µg/mL), respectively. In addition, the Papp in data set [3] came to 4.44 ×10⁻⁶ cm/s. For the same molecule, the remaining at 0.25 h in data set [5] is 92.3%.
Consider `O=c1n(CC(F)CN2C3CCC2CC(OCc2ccccc2F)C3)nc2ccccn12` (stereo not drawn), for which the IC50 in data set [1] was 1.8 µM; in data set [4], 17.8 µM. At P-gp (ABCB1), the efflux ratio was found to be 1.27. In addition, the solubility in data set [2] is 82 µM (≈ 35.1 µg/mL); in data set [6], no less than 100 µM. In data set [3], the Papp was 10.6 ×10⁻⁶ cm/s. Further, the remaining at 0.25 h in data set [5] turned out to be 66.9%. The molecule also registered a pKa in data set [7] of 8.1.
In the case of `O=c1n(CCCN2C3CCC2CC(OCc2ccccc2F)C3)nc2n1CCC2` (stereo not drawn), the IC50 was found to be 5.2 µM in data set [1] and 5.9 µM in data set [4]. The efflux ratio on P-gp (ABCB1) came out at 19.4. In addition, the solubility in data set [2] and in data set [6] was no less than 100 µM in each case. The Papp in data set [3] came to 1.62 ×10⁻⁶ cm/s. Also, the remaining at 0.25 h in data set [5] worked out at 95.8%.
For the molecule `O=c1n(CCCN2C3CCC2(F)CC(OCc2ccccc2F)C3)nc2ccccn12` (stereo not drawn), the IC50 is 7.6 µM in data set [1] and greater than 30 µM in data set [4]. Also, the efflux ratio on P-gp (ABCB1) stood at 0.96. The solubility was 73 µM (≈ 31.3 µg/mL) in data set [2] and no less than 100 µM in data set [6]. In addition, the Papp in data set [3] turned out to be 10.6 ×10⁻⁶ cm/s. In addition, in data set [5], the remaining at 0.25 h is 10.7%. The molecule also returned a pKa in data set [7] of 5.4.
As for `O=c1n(CC(O)CN2C3CCC2CC(OCc2ccccc2F)C3)nc2n1CCC2` (stereo not drawn), the IC50 in data set [1] turned out to be 19.7 µM; in data set [4] it was 12.9 µM. At P-gp (ABCB1), the efflux ratio came out at 9.16. Moreover, the solubility in data set [2] is 94 µM (≈ 39.2 µg/mL); in data set [6], no less than 100 µM. The Papp in data set [3] is 0.46 ×10⁻⁶ cm/s. In data set [5], the remaining at 0.25 h is 99.8%.
On to `O=c1n(CCCN2C3CCC2CC(COc2ccccc2F)C3)nc2ccccn12` (stereo not drawn), for which the values for the IC50 in data set [1] and in data set [4] were 0.07 µM and 6 µM, respectively. Also, the efflux ratio at P-gp (ABCB1) is 3.07. The solubility is 95 µM (≈ 39 µg/mL) in data set [2] and no less than 100 µM in data set [6]. Besides, the Papp in data set [3] was determined as 4.86 ×10⁻⁶ cm/s. For the same molecule, in data set [5], the remaining at 0.25 h worked out at 45.6%.
For `O=c1n(CC(O)CN2C3CCC2CC(OCc2ccccc2F)C3)nc2ccccn12` (stereo not drawn), the IC50 in data set [1] was 1.2 µM; in data set [4] it was 11.9 µM. Besides, at P-gp (ABCB1), the efflux ratio was determined as 6.36. Further, the values for the solubility in data set [2] and in data set [6] were 95 µM (≈ 40.5 µg/mL) and no less than 100 µM, respectively. Further, in data set [3], the Papp was 2.16 ×10⁻⁶ cm/s. The remaining at 0.25 h in data set [5] worked out at 82%.
On to `O=c1n(CCCN2C3CCC2(F)CC(OCc2ccccc2F)C3)nc2n1CCC2` (stereo not drawn), for which the IC50 in data set [1] and in data set [4] was greater than 30 µM in each case. In addition, the efflux ratio at P-gp (ABCB1) amounted to 1.39. Moreover, the solubility in data set [2] is 96 µM (≈ 40.2 µg/mL); in data set [6], no less than 100 µM. Also, in data set [3], the Papp worked out at 7.78 ×10⁻⁶ cm/s. Moreover, the remaining at 0.25 h in data set [5] was found to be 31.8%.
In the case of `O=c1n(CCCN2C3CCC2CC(OCc2ccccc2F)C3)nc2ccccn12` (stereo not drawn), the IC50 in data set [1] was determined as 0.11 µM; in data set [4] it was 3 µM. At P-gp (ABCB1), the efflux ratio came to 3.39. For the same molecule, the solubility in data set [2] is 99 µM (≈ 40.6 µg/mL); in data set [6], no less than 100 µM. For the same molecule, the Papp in data set [3] is 4.93 ×10⁻⁶ cm/s. Also, the remaining at 0.25 h in data set [5] worked out at 70.9%. The molecule also came in with a pKa in data set [7] of 8.7.
As to `O=c1n(CCCN2C3CCC2(F)CC(COc2ccccc2F)C3)nc2ccccn12` (racemic), the IC50 in data set [1] and in data set [4] was greater than 30 µM throughout. For the same molecule, on P-gp (ABCB1), the efflux ratio was 1.34. Further, the solubility in data set [2] is 61 µM (≈ 26.1 µg/mL); in data set [6], no less than 100 µM. Also, the Papp in data set [3] was 11.1 ×10⁻⁶ cm/s. The remaining at 0.25 h in data set [5] was 34.7%.

What is called IC50 is the midpoint of a concentration-inhibition curve. The low end stands for inhibition by little substance, the high end for a need for much substance. Usually efflux ratio stands for a quotient of directional permeabilities that is used to spot active efflux. Broadly, the solubility is how much of the substance goes into solution per volume. A lower solubility goes with a poorly soluble substance. Broadly, the pKa is the negative logarithm of the acid dissociation constant. A lower pKa goes with a stronger acid or weaker base.
